These results are taken from patent publication EP0028778B1, “Antibacterial compositions comprising a beta-lactam-type compound and a 3-substituted propenoate” (Merck & Co., Inc., priority 1979, dated 1981).

Series [1] concerns rabbits. In words: Nephrotoxicity of NFT alone or in combination with DMCO, intravenous, rabbits, 48 hours. The format is in vivo, New Zealand white rabbits. The conditions noted are these: for numbers of rabbits with renal tubular necrosis/numbers of rabbits tested / Renal Tubular Necrosis (degree) / BUN / Creatinine: i.v., 48 hours, rabbits; for Renal Tubular Necrosis (degree): histology; for BUN: mean; for Creatinine: mean serum. The method, then:
The compound N-formimidoyl theinamycin (NFT) and the compound Z-2-(2,2-dimethylcyclopropane carboxamido)-2-ocetenoic acid (DMCO) were tested in rabbits to evaluate nephrootoxicity.
Either NFT alone or in combination with DMCO was administered intravenously to rabbits. After 48 hours blood samples were taken for determination of BUN and creatinine concentrations and the rabbits were killed for histologic examination of kidney sections.
The study was initiated with 28 New Zealand white rabbits which ranged in age from 23 to 27 weeks, and in weight from 2.78 to 3.71 kg for males and 2.81 to 3.85 kg for females. All animals were housed in individual stainless steel cages and maintained in climate-controlled rooms with access to food (Purina Rabbit Chow) and tap water ad libitum.
NFT was administered to six groups of 2 male and 2 female rabbits each at a nominal dose of 180 mg/kg. Five of these groups received DMCO in addition to NFT at nominal doses of 90, 30, 10, 3 or 1 mg/kg. All doses were administered via the marginal ear vein at a dosage volume of 1.89 ml/kg. An additional group of 2 male and 2 female rabbits received 0.9% sterile saline and served as controls.
NFT was dissolved in solutions of sodium bicarbonate (NFT alone group) or sterile solutions of DMCO in sodium bicarbonate at five different concentrations; these solutions were prepared immediately prior to use.
The mean BUN and serum creatinine concentrations and the degrees of renal tubular epithelial necrosis are shown below in Table I: […]

The test system of series [2] is rabbits. The description is as above. The format is in vivo, New Zealand white rabbits. The conditions noted are these: single large doses, within 48 hours, dose rates comparable to those used with cephaloridine.

Turning to `CCCCC/C=C(\NC(=O)C1CC1(C)C)C(=O)O` (centres unmarked) [DMCO, Z-2-(2,2-dimethylcyclopropanecarboxamido)-2-octenoic acid], the “numbers of rabbits with renal tubular necrosis/numbers of rabbits tested” value in series [1] (NFT 180 mg/kg + DMCO 1 mg/kg) is reported as 4/4; in series [1] (NFT 180 mg/kg + DMCO 3 mg/kg) it was 4/4; in series [1] (NFT 180 mg/kg + DMCO 10 mg/kg), 4/4; in series [1] (NFT 180 mg/kg + DMCO 30 mg/kg), 4/4; in series [1] (NFT 180 mg/kg + DMCO 90 mg/kg), 0/4. Besides, the “Renal Tubular Necrosis (degree)” value is on record as “Marked-Severe” in series [1] (NFT 180 mg/kg + DMCO 1 mg/kg); “Marked” in series [1] (NFT 180 mg/kg + DMCO 3 mg/kg); “Moderate-Marked” in series [1] (NFT 180 mg/kg + DMCO 10 mg/kg); “V. Sl.-Moderate” in series [1] (NFT 180 mg/kg + DMCO 30 mg/kg); “None” in series [1] (NFT 180 mg/kg + DMCO 90 mg/kg). Also, the BUN in series [1] (NFT 180 mg/kg + DMCO 1 mg/kg) is reported as 64.7^S mg/100 ml; in series [1] (NFT 180 mg/kg + DMCO 3 mg/kg), 65.8^S mg/100 ml; in series [1] (NFT 180 mg/kg + DMCO 10 mg/kg), 53.1^S mg/100 ml; in series [1] (NFT 180 mg/kg + DMCO 30 mg/kg), 26.1^NS mg/100 ml; in series [1] (NFT 180 mg/kg + DMCO 90 mg/kg), 16.6^NS mg/100 ml. Also, the Creatinine in series [1] (NFT 180 mg/kg + DMCO 1 mg/kg) was 4.2^S mg/100 ml; in series [1] (NFT 180 mg/kg + DMCO 3 mg/kg), 4.2^S mg/100 ml; in series [1] (NFT 180 mg/kg + DMCO 10 mg/kg), 2.9^S mg/100 ml; in series [1] (NFT 180 mg/kg + DMCO 30 mg/kg) it was 1.3^NS mg/100 ml; in series [1] (NFT 180 mg/kg + DMCO 90 mg/kg) it was 1.2^NS mg/100 ml. In addition, in series [1] (co-administration with the antibiotic, general statement), the “ability to prevent nephrotoxicity” value is “has been shown to possess this property”.

`C[C@@H](O)[C@H]1C(=O)N2C(C(=O)O)=C(SCCN=CN)C[C@H]12` [NFT, N-formimidoyl thienamycin]: the “nephrotoxic potential in the rabbit laboratory model” value in series [2] is on record as “nephrotoxic”. Moreover, in series [1] (NFT 180 mg/kg alone), the “numbers of rabbits with renal tubular necrosis/numbers of rabbits tested” value is 4/4, the “Renal Tubular Necrosis (degree)” value is reported as “Marked-Severe”, the BUN is reported as 70.0^S mg/100 ml and the Creatinine was 4.2^S mg/100 ml.
